Experimental data published in article PMC10891162 (Scientific Reports, 2024).

What was measured:
[1] = system: Anti-cAMP primary antibody (GenScript A01509); test: cAMP Lumit immunoassay: cAMP standard curve, specificity and competition testing; format: binding; conditions: n = 2; for Luminescence signal drop on titration instead of cAMP (specificity): concentrations up to 10 µM, Fig. 2C,D; for Interference with cAMP standard curve: metabolite included at 10 µM in cAMP titration, Fig. 2E,F
[2] = system: β-Adrenergic receptor; test: cAMP detection in A375 cells, endogenous β-Adrenergic receptor; format: cell-based; conditions: Fig. 5C, n = 3; for Change of cAMP levels, β-Adrenergic antagonist: in the presence of 50 nM Isopreterenol; for Change of cAMP levels, β-Adrenergic agonist: 5 min treatment
Procedure: (§1) Media was removed from wells and 5µL of the diluted compounds were added to each well. […] Plates were mixed on an orbital shaker for 5 min at 400 rpm. […] 5µL of 2% trichloroacetic acid (TCA, Fisher Scientific SA9410-500) in water were added to wells to terminate reactions and lyse cells. […] Plates were mixed on an orbital shaker for 5 min at 400 rpm. […] Plates were mixed on an orbital shaker for 5 min at 400 rpm then incubated for 30 min at room temperature. […] Luminescence signal was measured on a GloMax Discover Microplate Reader within 15 min.
(§2) The assays were conducted by treatment of cells followed by lysis with 2% TCA, which also terminates the reactions. Cell lysates were then incubated with antibodies and tracer diluted in 0.3 M Tris buffer (pH 9.0; for neutralization) for 30 min after which time the detection reagent was added.

[3] = biological target: T1, PDE4A1A (Homo sapiens, UniProt P27815); test: PDE4 inhibition study (cAMP Lumit detection); format: biochemical; conditions: 20 ng PDE4A1A per reaction, 10 µM cAMP, n = 2, Fig. 4
T1 construct: purchased BPS Biosciences 60040
Procedure: Plates were mixed on an orbital shaker for 5 min at 400 rpm.

[4] = system: HEK293 cells; test: cAMP detection in HEK293 cells treated with Forskolin; format: cell-based; conditions: 30 min treatment, Fig. 5D, n = 3
Procedure: as §1, §2

[5] = system: Adenosine receptor; test: cAMP detection in A375 cells, endogenous Adenosine receptor; format: cell-based; conditions: 1 h treatment, Fig. 5D, n = 3
Procedure: as §1, §2

[6] = biological target: Dopamine D1 (Homo sapiens, UniProt P21728); test: cAMP detection in HEK293 cells stably transfected with DRD1; format: cell-based; conditions: n = 3
Procedure: as §1, §2

Chain of Dopamine D1 (P21728 whole entry): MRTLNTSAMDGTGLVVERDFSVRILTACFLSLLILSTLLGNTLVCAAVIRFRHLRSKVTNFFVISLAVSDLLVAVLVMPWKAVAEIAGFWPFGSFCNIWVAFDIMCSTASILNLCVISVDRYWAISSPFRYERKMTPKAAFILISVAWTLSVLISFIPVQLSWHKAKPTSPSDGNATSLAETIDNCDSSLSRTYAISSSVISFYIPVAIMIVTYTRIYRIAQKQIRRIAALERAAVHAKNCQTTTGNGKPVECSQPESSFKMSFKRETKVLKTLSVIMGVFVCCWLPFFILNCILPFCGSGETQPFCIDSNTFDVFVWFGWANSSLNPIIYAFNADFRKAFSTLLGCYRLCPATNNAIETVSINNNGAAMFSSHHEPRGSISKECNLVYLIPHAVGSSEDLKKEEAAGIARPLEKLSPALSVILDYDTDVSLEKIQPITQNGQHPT
T1 sequence (P27815 1-647 isoform P27815-4): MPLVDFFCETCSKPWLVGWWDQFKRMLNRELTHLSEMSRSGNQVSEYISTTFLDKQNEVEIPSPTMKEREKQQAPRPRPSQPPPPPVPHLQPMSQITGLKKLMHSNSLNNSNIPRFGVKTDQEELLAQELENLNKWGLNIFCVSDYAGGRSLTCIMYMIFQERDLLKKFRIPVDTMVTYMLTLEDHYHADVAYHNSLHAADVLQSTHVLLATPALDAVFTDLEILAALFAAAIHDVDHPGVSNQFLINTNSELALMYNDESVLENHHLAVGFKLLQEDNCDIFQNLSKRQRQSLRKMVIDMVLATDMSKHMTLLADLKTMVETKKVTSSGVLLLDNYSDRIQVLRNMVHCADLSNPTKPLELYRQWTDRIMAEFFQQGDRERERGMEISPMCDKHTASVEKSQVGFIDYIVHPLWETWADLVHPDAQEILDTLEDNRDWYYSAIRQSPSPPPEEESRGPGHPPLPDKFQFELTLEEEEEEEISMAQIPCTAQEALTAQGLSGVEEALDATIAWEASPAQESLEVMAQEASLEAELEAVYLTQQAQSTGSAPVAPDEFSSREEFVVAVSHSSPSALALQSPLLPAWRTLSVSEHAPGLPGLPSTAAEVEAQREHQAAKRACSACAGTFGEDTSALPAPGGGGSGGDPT

Q: What does the source list for Nc1nc2c(ncn2[C@@H]2O[C@@H]3COP(=O)(O)O[C@H]4[C@@H](O)[C@H](n5cnc6c(N)ncnc65)O[C@@H]4COP(=O)(O)O[C@@H]2[C@@H]3O)c(=O)[nH]1 [2′3′-cGAMP, 2′3′-cyclic guanosine monophosphate-adenosine monophosphate]?
A: Luminescence signal drop on titration instead of cAMP (specificity) [1]: None of the tested metabolites resulted in a significant luminescence signal drop; Interference with cAMP standard curve [1]: no effect

Q: Which “Luminescence signal drop on titration instead of cAMP (specificity)” value [1] does the source give for Nc1nc2c(ncn2[C@@H]2O[C@@H]3COP(=O)(O)O[C@H]4[C@@H](O)[C@H](n5cnc6c(N)ncnc65)O[C@@H]4COP(=O)(O)O[C@H]3[C@H]2O)c(=O)[nH]1 [3′3′-cGAMP, 3′3′-cyclic guanosine monophosphate-adenosine monophosphate] here?
A: The value was “None of the tested metabolites resulted in a significant luminescence signal drop”.

Q: What about the “Interference with cAMP standard curve” value [1] of the same compound?
A: The value was “no effect”.

Q: Which “Change of cAMP levels, β-Adrenergic antagonist” value [2] does the source give for C=CCc1ccccc1OCC(O)CNC(C)C (stereo not drawn) [Alprenolol] here?
A: Its value is “cAMP levels reduction”.

Q: CCOc1ccccc1C(=O)NCc1coc(-c2ccc(OC(F)F)c(OC(C)C)c2)n1 [Difamilast] was tested. Which IC50 [3] did it give?
A: The IC50 was 7.3 nM.

Q: With CNC[C@H](O)c1ccc(O)c(O)c1 [Epinephrine] as the compound, how does the “Change of cAMP levels, β-Adrenergic agonist” value [2] read?
A: The value was “cAMP levels increase”.

Q: With C=C[C@@]1(C)CC(=O)[C@]2(O)[C@@]3(C)[C@@H](O)CCC(C)(C)[C@@H]3[C@H](O)[C@H](OC(C)=O)[C@@]2(C)O1 [Forskolin] as the compound, how does the “Change of cAMP levels” value [4] read?
A: The value was “cAMP levels increase”.

Q: For CC(C)NCC(O)c1ccc(O)c(O)c1 (stereo not drawn) [Isopreterenol, Isoproterenol], which “Change of cAMP levels, β-Adrenergic agonist” value [2] is on record?
A: The value was “cAMP levels increase”.

Q: For CCNC(=O)[C@H]1O[C@@H](n2cnc3c(N)ncnc32)[C@H](O)[C@@H]1O [NECA], which “Change of cAMP levels, Adenosine receptor agonist” value [5] is on record?
A: The value was “cAMP levels increase”.

Q: With CC(C)NCC(O)COc1cccc2ccccc12 (stereo not drawn) [Propranolol] as the compound, how does the “Change of cAMP levels, β-Adrenergic antagonist” value [2] read?
A: The value was “cAMP levels reduction”.

Q: For CN1CCc2cc(Cl)c(O)cc2[C@@H](c2ccccc2)C1 [SCH23390], which “Change of cAMP levels, DRD1 antagonist” value ([6]; HEK293 stably transfected with DRD1, in the presence of 100 nM SKF38393, Fig. 5A) is on record?
A: The value was “cAMP levels reduction”.

Q: Oc1cc2c(cc1O)C(c1ccccc1)CNCC2 (stereo not drawn) [SKF38393] was tested. Which “Change of cAMP levels, DRD1 agonist” value ([6]; HEK293 stably transfected with DRD1, 1 h treatment, Fig. 5A) did it give?
A: The value was “cAMP levels increase”.

Q: Which “Luminescence signal drop on titration instead of cAMP (specificity)” value [1] does the source give for Nc1nc2c(ncn2[C@@H]2O[C@@H]3COP(=O)(O)O[C@H]3[C@H]2O)c(=O)[nH]1 [cGMP, cyclic guanosine monophosphate] here?
A: The value was “None of the tested metabolites resulted in a significant luminescence signal drop”.

Q: And the “Interference with cAMP standard curve” value [1]?
A: The value was “no effect”.
